Measured values as given in US20120046317A1, “NOVEL HETEROCYCLIC COMPOUNDS” (priority 2009, published 2012).

Columns and labels:
[1] = system: AGE-LDL formation (Low density lipoprotein incubated with CuCl2); assay: In vitro inhibition of AGE-LDL formation: LDL incubated with CuCl2, MDA-lysine adduct fluorescence; format: biochemical; settings: LDL with CuCl2 at 37° C.
Description: In vitro Inhibition of AGE-LDL Formation:
Low density lipoprotein (LDL) was incubated with CuCl2 at 37° C. in phosphate buffered saline in the presence and absence of the following compounds. […] Results were expressed as % MDA-lysine adducts accumulation, considering the extent of the same formed upon incubation with CuCl2 alone as 100%.

[2] = system: AGE-BSA Formation (Bovine Serum Albumin incubated with ribose); assay: In vitro prevention of advanced glycation endproducts (AGEs) accumulation: BSA incubated with ribose, fluorescence; settings: one week
Description: A reduction in fluorescence intensity in the presence of the test compound is an indication of its ability to prevent accumulation of advanced glycation endproducts.
Bovine Serum Albumin was incubated with ribose alone as well as with ribose and different concentrations of the following compounds under aseptic conditions for one week. At the end of the incubation period fluorescence intensity of the samples was measured at excitation and emission wavelengths of 355 nm and 460 nm respectively.

% Inhibition of AGE-BSA Formation ([2]; Conc. 100 uM)	% Inhibition of AGE-BSA Formation ([2]; Conc. 1 mM)	SMILES	% Inhibition of AGE-LDL-formation ([1]; Conc. 100 uM)	% Inhibition of AGE-LDL-formation ([1]; Conc. 250 uM)	other results
+ (+ indicate 0-10%)	–	COc1ccc(C(=O)CN2CCCC(C(=O)NNS(=O)(=O)c3ccc(C)cc3)C2)cc1 (centres unmarked) [compound 162, 1-[2-(4-methoxyphenyl)-2-oxoethyl]-N′-[(4-methylphenyl)sulfonyl]piperidine-3-carbohydrazide]	++++ (++++ indicate >30%)	–	–
+ (+ indicate 0-10%)	–	O=C(CN1CCCC(C(=O)NNS(=O)(=O)c2ccccc2)C1)c1cccs1 (centres unmarked) [compound 160, 1-[2-oxo-2-(thiophen-2-yl)ethyl]-N′-(phenylsulfonyl)piperidine-3-carbohydrazide]	+ (+ indicate 0-10%)	–	–
–	+ (+ indicate 0-10%)	CS(=O)(=O)NNC(=O)C1=CN(CC(=O)c2cccs2)CCC1 [compound 187, N′-(methylsulfonyl)-1-[2-oxo-2-(thiophen-2-yl)ethyl]-1,4,5,6-tetrahydropyridine-3-carbohydrazide]	–	–	–
+ (+ indicate 0-10%)	–	COc1ccc(C2=CN(CC(=O)c3cccs3)C=C(C(=O)NNS(C)(=O)=O)C2)cc1 [compound 151, 5-(4-methoxyphenyl)-N′-(methylsulfonyl)-1-[2-oxo-2-(thiophen-2-yl)ethyl]-1,4-dihydropyridine-3-carbohydrazide]	+ (+ indicate 0-10%)	–	–
–	–	COc1ccc(C(=O)CN2CCC=C(C(=O)NNS(C)(=O)=O)C2)cc1 [compound 172, 1-[2-(4-methoxyphenyl)-2-oxoethyl]-N′-(methylsulfonyl)-1,2,5,6-tetrahydropyridine-3-carbohydrazide]	–	–	% Inhibition of AGE-LDL-formation ([1]; Conc. 50 uM): + (+ indicate 0-10%); % Inhibition of AGE-BSA Formation ([2]; Conc. 50 uM): + (+ indicate 0-10%)
–	+ (+ indicate 0-10%)	CS(=O)(=O)NNC(=O)C1=CCCN(CC(=O)c2ccc(Br)cc2)C1 [compound 167, 1-[2-(4-bromophenyl)-2-oxoethyl]-N′-(methylsulfonyl)-1,2,5,6-tetrahydropyridine-3-carbohydrazide]	–	+ (+ indicate 0-10%)	–
–	+ (+ indicate 0-10%)	Cc1ccc(C(=O)CN2CC=CC(C(=O)NNS(C)(=O)=O)C2)s1 (centres unmarked) [compound 182, N′-(methylsulfonyl)-1-[2-(5-methylthiophen-2-yl)-2-oxoethyl]-1,2,3,6-tetrahydropyridine-3-carbohydrazide]	–	+++ (+++ indicate 21-30%)	–
–	+++ (+++ indicate 21-30%)	Cc1ccc(C(=O)CN2C=CCC(C(=O)NNS(C)(=O)=O)=C2)s1 [Compound no. 13, N′-(methylsulfonyl)-1-[2-(5-methylthiophen-2-yl)-2-oxoethyl]-1,4-dihydropyridine-3-carbohydrazide]	–	++++ (++++ indicate >30%)	–
+ (+ indicate 0-10%)	–	COc1ccc(C(=O)CN2CCC=C(C(=O)NNS(=O)(=O)c3ccc(C)cc3)C2)cc1 [compound 173, 1-[2-(4-methoxyphenyl)-2-oxoethyl]-N′-[(4-methylphenyl)sulfonyl]-1,2,5,6-tetrahydropyridine-3-carbohydrazide]	+ (+ indicate 0-10%)	–	–
–	+ (+ indicate 0-10%)	Cc1ccc(C(=O)CN2CCCC(C(=O)NNS(C)(=O)=O)C2)s1 (centres unmarked) [compound 164, N′-(methylsulfonyl)-1-[2-(5-methylthiophen-2-yl)-2-oxoethyl]piperidine-3-carbohydrazide]	–	+ (+ indicate 0-10%)	–
–	+ (+ indicate 0-10%)	Cc1ccc(C(=O)CN2CCC=C(C(=O)NNS(C)(=O)=O)C2)s1 [compound 174, N′-(methylsulfonyl)-1-[2-(5-methylthiophen-2-yl)-2-oxoethyl]-1,2,5,6-tetrahydropyridine-3-carbohydrazide]	–	++++ (++++ indicate >30%)	–
–	–	O=C(NCCO)C1=CN(CC(=O)c2cccs2)CCC1 [compound 158, N-(2-hydroxyethyl)-1-[2-oxo-2-(thiophen-2-yl)ethyl]-1,4,5,6-tetrahydropyridine-3-carboxamide]	+ (+ indicate 0-10%)	–	% Inhibition of AGE-BSA Formation ([2]; Conc. 250 uM): + (+ indicate 0-10%)
+ (+ indicate 0-10%)	–	CS(=O)(=O)NNC(=O)C1=CN(CC(=O)c2ccc(Cl)cc2Cl)C=CC1 [compound 168, 1-[2-(2,4-dichlorophenyl)-2-oxoethyl]-N′-(methylsulfonyl)-1,4-dihydropyridine-3-carbohydrazide]	+ (+ indicate 0-10%)	–	–
–	+ (+ indicate 0-10%)	CS(=O)(=O)NNC(=O)C1CCCN(CC(=O)c2cccs2)C1 (centres unmarked) [compound 184, N′-(methylsulfonyl)-1-[2-oxo-2-(thiophen-2-yl)ethyl]piperidine-3-carbohydrazide]	–	+++ (+++ indicate 21-30%)	–
–	+ (+ indicate 0-10%)	CS(=O)(=O)NNC(=O)C1C=CCN(CC(=O)c2cccs2)C1 (centres unmarked) [compound 186, N′-(methylsulfonyl)-1-[2-oxo-2-(thiophen-2-yl)ethyl]-1,2,3,6-tetrahydropyridine-3-carbohydrazide]	–	++++ (++++ indicate >30%)	–
–	–	O=C(CN1C=CCC(C(=O)NCCOC(=O)c2ccccc2)=C1)Nc1ccccc1 [Compound no. 107, 2-[({1-[2-oxo-2-(phenylamino)ethyl]-1,4-dihydropyridin-3-yl}carbonyl)amino]ethyl benzoate]	+ (+ indicate 0-10%)	–	–
+ (+ indicate 0-10%)	–	O=C(NNS(=O)(=O)c1ccccc1)C1=CCCN(CC(=O)c2cccs2)C1 [compound 169, 1-[2-oxo-2-(thiophen-2-yl)ethyl]-N′-(phenylsulfonyl)-1,2,5,6-tetrahydropyridine-3-carbohydrazide]	+ (+ indicate 0-10%)	–	–
–	+ (+ indicate 0-10%)	O=C(NCCO)C1=CN(CC(=O)c2ccc(Br)cc2)C=CC1 [compound 148, 1-[2-(4-bromophenyl)-2-oxoethyl]-N-(2-hydroxyethyl)-1,4-dihydropyridine-3-carboxamide]	–	–	–
+ (+ indicate 0-10%)	–	O=C(NNC(=O)C1=CCCN(CC(=O)c2cccs2)C1)Nc1ccc(Cl)cc1 [compound 171, N-(4-chlorophenyl)-2-({1-[2-oxo-2-(thiophen-2-yl)ethyl]-1,2,5,6-tetrahydropyridin-3-yl}carbonyl)hydrazinecarboxamide]	+ (+ indicate 0-10%)	–	–
–	–	Cc1ccc(S(=O)(=O)NNC(=O)C2=CN(CC(=O)Nc3ccccc3)C=CC2)cc1 [compound 145, 2-[3-({2-[(4-methylphenyl)sulfonyl]hydrazinyl}carbonyl)pyridin-1(4H)-yl]-N-phenylacetamide]	–	+ (+ indicate 0-10%)	% Inhibition of AGE-BSA Formation ([2]; Conc. 250 uM): + (+ indicate 0-10%)
–	–	COc1ccc(C(=O)CN2CC=CC(C(=O)NNS(C)(=O)=O)C2)cc1 (centres unmarked) [compound 181, 1-[2-(4-methoxyphenyl)-2-oxoethyl]-N′-(methylsulfonyl)-1,2,3,6-tetrahydropyridine-3-carbohydrazide]	+ (+ indicate 0-10%)	–	% Inhibition of AGE-BSA Formation ([2]; Conc. 250 uM): + (+ indicate 0-10%)
–	+ (+ indicate 0-10%)	COc1ccc(C(=O)CN2C=CCC(C(=O)NNS(C)(=O)=O)=C2)cc1 [compound 144, 1-[2-(4-methoxyphenyl)-2-oxoethyl]-N′-(methylsulfonyl)-1,4-dihydropyridine-3-carbohydrazide]	–	++++ (++++ indicate >30%)	–
–	+++ (+++ indicate 21-30%)	CS(=O)(=O)NNC(=O)C1=CN(CC(=O)c2ccc(Cl)s2)C=CC1 [Compound no. 6, 1-[2-(5-chlorothiophen-2-yl)-2-oxoethyl]-N′-(methylsulfonyl)-1,4-dihydropyridine-3-carbohydrazide]	–	++++ (++++ indicate >30%)	–
+ (+ indicate 0-10%)	–	CS(=O)(=O)NNC(=O)C1=CN(CC(=O)c2ccc(Br)cc2)C=CC1 [compound 143, 1-[2-(4-bromophenyl)-2-oxoethyl]-N′-(methylsulfonyl)-1,4-dihydropyridine-3-carbohydrazide]	++++ (++++ indicate >30%)	–	–
+++ (+++ indicate 21-30%)	–	Cc1ccc(S(=O)(=O)NNC(=O)C2=CN(CC(=O)c3cccs3)C=CC2)cc1 [compound 147, N′-[(4-methylphenyl)sulfonyl]-1-[2-oxo-2-(thiophen-2-yl)ethyl]-1,4-dihydropyridine-3-carbohydrazide]	++++ (++++ indicate >30%)	–	–
+ (+ indicate 0-10%)	–	CC(C)(C)c1ccc(S(=O)(=O)NNC(=O)C2CCCN(CC(=O)c3cccs3)C2)cc1 (centres unmarked) [compound 165, N′-[(4-tert-butylphenyl)sulfonyl]-1-[2-oxo-2-(thiophen-2-yl)ethyl]piperidine-3-carbohydrazide]	+ (+ indicate 0-10%)	–	–
–	+ (+ indicate 0-10%)	CS(=O)(=O)NNC(=O)C1=CCCN(CC(=O)c2cccs2)C1 [compound 185, N′-(methylsulfonyl)-1-[2-oxo-2-(thiophen-2-yl)ethyl]-1,2,5,6-tetrahydropyridine-3-carbohydrazide]	–	+++ (+++ indicate 21-30%)	–
–	+++ (+++ indicate 21-30%)	CS(=O)(=O)NNC(=O)C1=CN(CC(=O)c2cccs2)CCC1 [compound 183, N′-(methylsulfonyl)-1-[2-oxo-2-(thiophen-2-yl)ethyl]-1,4,5,6-tetrahydropyridine-3-carbohydrazide]	–	++ (++ indicate 11-20%)	–
